Measurements taken from the supplement of paper PMC13380429.
± gives the standard deviation of the averaged measurements.

Key:
Details in all cases: 72 h
[1] = tested on: Caco-2; test: relative viability EC50 (midpoint between 100% and the lowest measured viability); higher = less toxic
[2] = tested on: Calu-3; test: as above
[3] = tested on: HepG2; test: as above
[4] = tested on: U2OS; test: as above
[5] = tested on: Vero E6; test: as above
[6] = tested on: Caco-2; test: drug sensitivity score (DSS) for viability; higher = more toxic; extreme values may be limits of the assay
[7] = tested on: Calu-3; test: as above
[8] = tested on: HepG2; test: as above
[9] = tested on: U2OS; test: as above
[10] = tested on: Vero E6; test: as above
[11] = tested on: Caco-2; test: cell viability relative to DMSO; higher = less toxic
[12] = tested on: Calu-3; test: as above
[13] = tested on: HepG2; test: as above
[14] = tested on: U2OS; test: as above
[15] = tested on: Vero E6; test: as above

SMILES | relative viability EC50 [1] | relative viability EC50 [2] | relative viability EC50 [3] | relative viability EC50 [4] | relative viability EC50 [5] | drug sensitivity score [6] | drug sensitivity score [7] | drug sensitivity score [8] | drug sensitivity score [9] | drug sensitivity score [10] | cell viability ([11]; 1 nM) | cell viability ([11]; 10 nM) | cell viability ([11]; 100 nM) | cell viability ([11]; 1000 nM) | cell viability ([11]; 10000 nM) | cell viability ([12]; 1 nM) | cell viability ([12]; 10 nM) | cell viability ([12]; 100 nM) | cell viability ([12]; 1000 nM) | cell viability ([12]; 10000 nM) | cell viability ([13]; 1 nM) | cell viability ([13]; 10 nM) | cell viability ([13]; 100 nM) | cell viability ([13]; 1000 nM) | cell viability ([13]; 10000 nM) | cell viability ([14]; 1 nM) | cell viability ([14]; 10 nM) | cell viability ([14]; 100 nM) | cell viability ([14]; 1000 nM) | cell viability ([14]; 10000 nM) | cell viability ([15]; 1 nM) | cell viability ([15]; 10 nM) | cell viability ([15]; 100 nM) | cell viability ([15]; 1000 nM) | cell viability ([15]; 10000 nM)
Cn1c(=O)[nH]c2ncn(C)c2c1=O [paraxanthine] | > 10 µM | > 10 µM | > 10 µM | > 10 µM | > 10 µM | 0 | 0 | 0 | 0 | 0 | 95.4% | 106% | 97.4% | 102% | 91.8% | 94.9% | 101% | 92.9% | 89.8% | 98.1% | 102% | 100% | 106% | 103% | 93.2% | 97.4% | 101% | 98.2% | 100% | 99.7% | 95.5% | 95.8% | 99.2% | 93.5% | 98.2%
CCOCCn1c(N2CCCN(C)CC2)nc2ccccc21 [emedastine] | > 10 µM | > 10 µM | > 10 µM | > 10 µM | > 10 µM | 0 | 0 | 0 | 0 | 0 | 97.3% | 102% | 102% | 95.4% | 91.2% | 94.2% | 101% | 99.3% | 112% | 106% | 89% | 98.4% | 92.7% | 101% | 107% | 97.4% | 96.3% | 93% | 98.4% | 96% | 99.1% | 105% | 100% | 98.4% | 99.8%
C=C1/C(=C\C=C2/CCC[C@]3(C)[C@@H]([C@H](C)CCCC(C)C)CC[C@@H]23)C[C@@H](O)C[C@@H]1O [alfacalcidol] | > 10 µM | > 10 µM | > 10 µM | > 10 µM | > 10 µM | 1.5 | 0 | 0 | 0 | 0 | 98.2% | 98.1% | 92.5% | 85% | 85.9% | 90.9% | 94.3% | 99.6% | 87.5% | 101% | 91.4% | 105% | 98.4% | 108% | 102% | 94.1% | 93.7% | 99% | 89.1% | 91.5% | 90.2% | 98.3% | 92.2% | 97.1% | 101%
N#Cc1ccc(NCCNCC(=O)N2CCC[C@H]2C#N)nc1 [NVP-DPP728] | > 10 µM | > 10 µM | > 10 µM | > 10 µM | > 10 µM | 0 | 0 | 0 | 0 | 0 | 96.6% | 100% | 97.1% | 106% | 104% | 101% | 92.1% | 96.5% | 104% | 110% | 112% | 98.6% | 102% | 97.3% | 106% | 96.2% | 98.3% | 101% | 102% | 99.4% | 97.5% | 97.8% | 90.3% | 91.6% | 104%
CC(C)(S)C(N)C(=O)O (stereo in doubt) [penicillamine-(racemic)] | > 10 µM | > 10 µM | > 10 µM | > 10 µM | > 10 µM | 0 | 0 | 0 | 0 | 0 | 105 ± 1.9% | 98 ± 0.42% | 96 ± 3.5% | 93.7 ± 4.4% | 98.55 ± 0.35% | 95.7 ± 11% | 94.9 ± 13% | 98.3 ± 5% | 106 ± 3.7% | 108 ± 3.2% | 103% | 106% | 110% | 95% | 100% | 103 ± 1.8% | 97.4 ± 2.1% | 100.2 ± 0.35% | 98.5 ± 6.2% | 101 ± 1.1% | 104 ± 6.7% | 102 ± 5.4% | 102 ± 2.6% | 99.9 ± 7.1% | 101 ± 3.6%
O=C(O)c1ccc(Nc2ncc3c(n2)-c2ccc(Cl)cc2C(c2c(F)cccc2F)=NC3)cc1 [MLN8054] | > 10 µM | > 10 µM |  | > 10 µM | > 10 µM | 3.3 | 0.6 | 5.1 | 2 | 1.1 | 94.4% | 100% | 87% | 82% | 82.5% | 96.2% | 96.2% | 112% | 91.3% | 86.8% | 109% | 108% | 96.7% | 73.2% | 62.3% | 103% | 105% | 100% | 90% | 76.7% | 103% | 97.9% | 104% | 91.7% | 82.7%
O/N=C/c1ccc(-c2ccc(O)c(F)c2)c(Cl)c1O [FERb-033] | > 10 µM | > 10 µM |  | > 10 µM | > 10 µM | 0.8 | 0.3 | 1.2 | 0 | 0 | 98.1% | 95.2% | 93.4% | 91.9% | 81.4% | 104% | 101% | 100% | 98.9% | 84.8% | 95.7% | 104% | 100% | 99.8% | 71.1% | 102% | 97.1% | 99.5% | 96.9% | 93.9% | 97.7% | 106% | 98.8% | 103% | 95.7%
CC[C@H](NC(=O)c1c(O)c(-c2ccccc2)nc2ccccc12)c1ccccc1 [talnetant] | > 10 µM | > 10 µM |  | > 10 µM | > 10 µM | 0 | 0 | 1 | 0 | 0 | 97.9% | 98.9% | 101% | 98.1% | 90% | 104% | 97.3% | 104% | 96.5% | 106% | 102% | 99% | 94.6% | 100% | 74.2% | 100% | 92.7% | 104% | 95% | 101% | 109% | 102% | 98.4% | 102% | 102%
CCOC(=O)c1c(O)nc2cccc3c2c1-c1ccccc1C3=O [NQDI-1] | > 10 µM | > 10 µM |  | > 10 µM | > 10 µM | 0 | 0 | 5 | 0 | 0 | 89.6% | 103% | 89.7% | 92.9% | 98.3% | 91.5% | 96.8% | 95.7% | 95.2% | 104% | 106% | 102% | 98.4% | 76% | 57.2% | 95.6% | 101% | 102% | 97.7% | 101% | 104% | 103% | 102% | 95.9% | 94%
O=S(=O)(c1cccc2c(Cl)cccc12)N1CCCNCC1 [ML9] | > 10 µM | > 10 µM |  | > 10 µM | > 10 µM | 0.1 | 0 | 1.5 | 0 | 0 | 94.5% | 91.6% | 97.3% | 88% | 87.7% | 110% | 104% | 110% | 99.9% | 98.9% | 96.3% | 96.5% | 90.8% | 93.3% | 74.7% | 95.5% | 93.3% | 96.9% | 102% | 103% | 89% | 96.9% | 87.9% | 96.8% | 94.1%
O=c1n(CC2CO2)c(=O)n(CC2CO2)c(=O)n1CC1CO1 (stereo not drawn) [teroxirone] | > 10 µM | > 10 µM |  | > 10 µM | > 10 µM | 0.4 | 0 | 4 | 0 | 0.4 | 102% | 101% | 95.6% | 93.2% | 84.3% | 94.4% | 91.2% | 99.3% | 84.1% | 90.9% | 99.9% | 100% | 92.8% | 91.1% | 51.8% | 103% | 95.7% | 104% | 102% | 96.2% | 100% | 105% | 98.5% | 102% | 80.8%
N=C(N)c1ccc(/N=N/Nc2ccc(C(=N)N)cc2)cc1 [diminazene-aceturate] | > 10 µM | > 10 µM |  | > 10 µM | > 10 µM | 1.9 | 0 | 4.2 | 0 | 0 | 104% | 102% | 112% | 91.1% | 76.6% | 93.7% | 101% | 99.9% | 99.2% | 94.8% | 112% | 113% | 90.2% | 86.5% | 50.5% | 99% | 98.3% | 103% | 98.2% | 107% | 99.7% | 109% | 107% | 102% | 91.3%
CCCCCCCCCCCCCCC[C@@H](O)[C@@H](N)CO [safingol] | 2.87 µM | > 10 µM |  | > 10 µM | > 10 µM | 6 | 0 | 1.9 | 0 | 0 | 94.1% | 85.3% | 91% | 96.1% | 1.7% | 85.3% | 96.8% | 95.2% | 108% | 96.4% | 106% | 103% | 80% | 95.5% | 73.7% | 94% | 97.9% | 102% | 97.9% | 103% | 106% | 106% | 96.1% | 104% | 106%
Cc1ncc(CO)c(/C=N/NC(=O)c2ccncc2)c1O [pyridoxal-isonicotinoyl-hydrazone] | > 10 µM | > 10 µM |  | > 10 µM | > 10 µM | 0 | 0 |  | 0 | 0 | 102% | 108% | 93.3% | 100% | 100% | 90.1% | 99.4% | 102% | 103% | 92% |  |  |  |  |  | 95.8% | 97.4% | 95.8% | 93% | 102% | 100% | 94.2% | 92.5% | 97.4% | 109%
CSc1nc(NC2CCCC2)c([N+](=O)[O-])c(NC2CCCC2)n1 | > 10 µM | > 10 µM |  | > 10 µM | > 10 µM | 0 | 0 |  | 0 | 0 | 99% | 97% | 102% | 93.7% | 95.7% | 94.6% | 94.2% | 106% | 96.9% | 90.1% |  |  |  |  |  | 102% | 103% | 98.9% | 106% | 97.2% | 110% | 98.3% | 107% | 96.4% | 97%
